Active and inactive are the calls of the source. The calls are words filed in the database; no cut-off is given here.
What was measured:
[1] = target: Protein cereblon/Bcl-2-like protein 1 (Homo sapiens, UniProt Q07817+Q96SW2); test: Protac activity at CRBN/BCL-XL in human MOLT-4 cells assessed as induction of BCL-XL degradation by measuring remaining BCL-XL level at 50 nM measured after 16 hrs by immunoblotting analysis relative to control; type: cell-based
[2] = test system: MOLT-4; test: Antiproliferative activity against human MOLT-4 cells assessed as reduction in cell viability measured after 48 hrs by MTS assay; type: functional, cell-based; settings: MOLT-4, 48 h
[3] = target: Protein cereblon/Apoptosis regulator Bcl-2 (Homo sapiens) (UniProt P10415+Q96SW2); test: Protac activity at CRBN/BCL2 in human MOLT-4 cells assessed as induction of BCL2 degradation at 50 nM measured after 16 hrs by immunoblotting analysis; type: cell-based
Chain of Protein cereblon/Apoptosis regulator Bcl-2 (Homo sapiens) (P10415 whole entry, looked up): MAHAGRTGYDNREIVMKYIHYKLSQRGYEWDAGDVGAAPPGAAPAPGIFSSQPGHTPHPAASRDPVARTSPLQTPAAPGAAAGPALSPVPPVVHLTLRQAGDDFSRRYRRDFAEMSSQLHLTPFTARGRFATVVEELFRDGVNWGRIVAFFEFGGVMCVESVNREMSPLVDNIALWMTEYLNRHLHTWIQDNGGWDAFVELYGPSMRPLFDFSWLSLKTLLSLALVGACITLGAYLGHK
Chain of Protein cereblon/Apoptosis regulator Bcl-2 (Homo sapiens) (Q96SW2 whole entry, looked up): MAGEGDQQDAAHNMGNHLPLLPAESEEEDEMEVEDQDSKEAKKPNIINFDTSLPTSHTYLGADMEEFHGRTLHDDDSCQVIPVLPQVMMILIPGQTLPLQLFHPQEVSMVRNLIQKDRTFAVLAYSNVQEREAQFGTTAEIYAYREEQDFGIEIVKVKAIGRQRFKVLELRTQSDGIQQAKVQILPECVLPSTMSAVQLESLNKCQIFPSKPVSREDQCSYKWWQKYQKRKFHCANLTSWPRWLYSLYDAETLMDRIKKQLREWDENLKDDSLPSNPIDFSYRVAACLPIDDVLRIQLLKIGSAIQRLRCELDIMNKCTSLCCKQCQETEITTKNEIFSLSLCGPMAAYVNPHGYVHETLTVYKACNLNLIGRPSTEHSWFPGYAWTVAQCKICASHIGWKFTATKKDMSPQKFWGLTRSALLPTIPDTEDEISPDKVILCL

Chain of Protein cereblon/Bcl-2-like protein 1 (Q07817 whole entry, looked up): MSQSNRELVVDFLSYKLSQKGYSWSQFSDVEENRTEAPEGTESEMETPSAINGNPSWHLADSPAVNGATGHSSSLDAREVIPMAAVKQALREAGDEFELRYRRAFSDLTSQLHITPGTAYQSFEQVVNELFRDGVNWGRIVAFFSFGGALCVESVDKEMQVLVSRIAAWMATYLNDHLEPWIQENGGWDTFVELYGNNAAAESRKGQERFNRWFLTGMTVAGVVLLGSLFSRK
Chain of Protein cereblon/Bcl-2-like protein 1 (Q96SW2 whole entry, looked up): as the sequence (Q96SW2 whole entry, looked up) above

Activity [1] [%]	IC50 [2] [µM]	Activity [3]	Structure (SMILES)
20	0.0605	inactive	CC1(C)CCC(c2ccc(Cl)cc2)=C(CN2CCN(c3ccc(C(=O)NS(=O)(=O)c4ccc(N[C@H](CCN5CCN(CCOCCNc6cccc7c6C(=O)N([C@@H]6CCC(=O)NC6=O)C7=O)CC5)CSc5ccccc5)c(S(=O)(=O)C(F)(F)F)c4)cc3)CC2)C1
89	> 2	inactive	CC1(C)CCC(c2ccc(Cl)cc2)=C(CN2CCN(c3ccc(C(=O)NS(=O)(=O)c4ccc(N[C@H](CCN5CCN(C(=O)CCCCCCCNc6cccc7c6C(=O)N([C@@H]6CCC(=O)NC6=O)C7=O)CC5)CSc5ccccc5)c(S(=O)(=O)C(F)(F)F)c4)cc3)CC2)C1
94	> 2	inactive	CN(CCCCCCCCNc1cccc2c1C(=O)N([C@@H]1CCC(=O)NC1=O)C2=O)CC[C@H](CSc1ccccc1)Nc1ccc(S(=O)(=O)NC(=O)c2ccc(N3CCN(CC4=C(c5ccc(Cl)cc5)CCC(C)(C)C4)CC3)cc2)cc1S(=O)(=O)C(F)(F)F
101	> 2	inactive	CC1(C)CCC(c2ccc(Cl)cc2)=C(CN2CCN(c3ccc(C(=O)NS(=O)(=O)c4ccc(N[C@H](CCN5CCN(C(=O)CCCCCCNc6cccc7c6C(=O)N([C@@H]6CCC(=O)NC6=O)C7=O)CC5)CSc5ccccc5)c(S(=O)(=O)C(F)(F)F)c4)cc3)CC2)C1
24		inactive	CN(CCCCCCCn1cc(COCCOCCOCCNc2cccc3c2C(=O)N([C@@H]2CCC(=O)NC2=O)C3=O)nn1)CC[C@H](CSc1ccccc1)Nc1ccc(S(=O)(=O)NC(=O)c2ccc(N3CCN(CC4=C(c5ccc(Cl)cc5)CCC(C)(C)C4)CC3)cc2)cc1S(=O)(=O)C(F)(F)F
73	0.147	inactive	CN(CCCCCCNc1cccc2c1C(=O)N([C@@H]1CCC(=O)NC1=O)C2=O)CC[C@H](CSc1ccccc1)Nc1ccc(S(=O)(=O)NC(=O)c2ccc(N3CCN(CC4=C(c5ccc(Cl)cc5)CCC(C)(C)C4)CC3)cc2)cc1S(=O)(=O)C(F)(F)F
28	0.177	inactive	CN(CC[C@H](CSc1ccccc1)Nc1ccc(S(=O)(=O)NC(=O)c2ccc(N3CCN(CC4=C(c5ccc(Cl)cc5)CCC(C)(C)C4)CC3)cc2)cc1S(=O)(=O)C(F)(F)F)C(=O)CCCCCCn1cc(COCCOCCNc2cccc3c2C(=O)N([C@@H]2CCC(=O)NC2=O)C3=O)nn1
20	0.161	inactive	CC1(C)CCC(c2ccc(Cl)cc2)=C(CN2CCN(c3ccc(C(=O)NS(=O)(=O)c4ccc(N[C@H](CCN5CCN(C(=O)COCCOCCNc6cccc7c6C(=O)N([C@@H]6CCC(=O)NC6=O)C7=O)CC5)CSc5ccccc5)c(S(=O)(=O)C(F)(F)F)c4)cc3)CC2)C1
21	0.211	inactive	CC1(C)CCC(c2ccc(Cl)cc2)=C(CN2CCN(c3ccc(C(=O)NS(=O)(=O)c4ccc(N[C@H](CCN5CCN(C(=O)COCCOCCOCCNc6cccc7c6C(=O)N([C@@H]6CCC(=O)NC6=O)C7=O)CC5)CSc5ccccc5)c(S(=O)(=O)C(F)(F)F)c4)cc3)CC2)C1
30		inactive	CC1(C)CCC(c2ccc(Cl)cc2)=C(CN2CCN(c3ccc(C(=O)NS(=O)(=O)c4ccc(N[C@H](CCN5CCN(CCCNc6cccc7c6C(=O)N([C@@H]6CCC(=O)NC6=O)C7=O)CC5)CSc5ccccc5)c(S(=O)(=O)C(F)(F)F)c4)cc3)CC2)C1 (mixture of isomers)
47	0.0609	inactive	CN(CCCCCNc1cccc2c1C(=O)N([C@@H]1CCC(=O)NC1=O)C2=O)CC[C@H](CSc1ccccc1)Nc1ccc(S(=O)(=O)NC(=O)c2ccc(N3CCN(CC4=C(c5ccc(Cl)cc5)CCC(C)(C)C4)CC3)cc2)cc1S(=O)(=O)C(F)(F)F
63	0.518	inactive	CC1(C)CCC(c2ccc(Cl)cc2)=C(CN2CCN(c3ccc(C(=O)NS(=O)(=O)c4ccc(N[C@H](CCN5CCN(C(=O)CCCCCNc6cccc7c6C(=O)N([C@@H]6CCC(=O)NC6=O)C7=O)CC5)CSc5ccccc5)c(S(=O)(=O)C(F)(F)F)c4)cc3)CC2)C1
40	0.0387	inactive	CN(CCCCNc1cccc2c1C(=O)N([C@@H]1CCC(=O)NC1=O)C2=O)CC[C@H](CSc1ccccc1)Nc1ccc(S(=O)(=O)NC(=O)c2ccc(N3CCN(CC4=C(c5ccc(Cl)cc5)CCC(C)(C)C4)CC3)cc2)cc1S(=O)(=O)C(F)(F)F
29	0.179	inactive	CN(CC[C@H](CSc1ccccc1)Nc1ccc(S(=O)(=O)NC(=O)c2ccc(N3CCN(CC4=C(c5ccc(Cl)cc5)CCC(C)(C)C4)CC3)cc2)cc1S(=O)(=O)C(F)(F)F)C(=O)CCCCCCn1cc(COCCOCCOCCNc2cccc3c2C(=O)N([C@@H]2CCC(=O)NC2=O)C3=O)nn1
5	0.0193	inactive	CN(CCOCCOCCOCCOCCNc1cccc2c1C(=O)N([C@@H]1CCC(=O)NC1=O)C2=O)CC[C@H](CSc1ccccc1)Nc1ccc(S(=O)(=O)NC(=O)c2ccc(N3CCN(CC4=C(c5ccc(Cl)cc5)CCC(C)(C)C4)CC3)cc2)cc1S(=O)(=O)C(F)(F)F
45	0.1	inactive	CC1(C)CCC(c2ccc(Cl)cc2)=C(CN2CCN(c3ccc(C(=O)NS(=O)(=O)c4ccc(N[C@H](CCN5CCN(CCCCCNc6cccc7c6C(=O)N([C@@H]6CCC(=O)NC6=O)C7=O)CC5)CSc5ccccc5)c(S(=O)(=O)C(F)(F)F)c4)cc3)CC2)C1
44		inactive	CC1(C)CCC(c2ccc(Cl)cc2)=C(CN2CCN(c3ccc(C(=O)NS(=O)(=O)c4ccc(N[C@H](CCN5CCN(C(=O)CCCNc6cccc7c6C(=O)N([C@@H]6CCC(=O)NC6=O)C7=O)CC5)CSc5ccccc5)c(S(=O)(=O)C(F)(F)F)c4)cc3)CC2)C1
13	0.0414	inactive	CC1(C)CCC(c2ccc(Cl)cc2)=C(CN2CCN(c3ccc(C(=O)NS(=O)(=O)c4ccc(N[C@H](CCN5CCN(CCOCCOCCNc6cccc7c6C(=O)N([C@@H]6CCC(=O)NC6=O)C7=O)CC5)CSc5ccccc5)c(S(=O)(=O)C(F)(F)F)c4)cc3)CC2)C1
66	0.77	inactive	CN(CC[C@H](CSc1ccccc1)Nc1ccc(S(=O)(=O)NC(=O)c2ccc(N3CCN(CC4=C(c5ccc(Cl)cc5)CCC(C)(C)C4)CC3)cc2)cc1S(=O)(=O)C(F)(F)F)C(=O)CCCn1cc(COCCOCCNc2cccc3c2C(=O)N([C@@H]2CCC(=O)NC2=O)C3=O)nn1
11	0.126	inactive	CC1(C)CCC(c2ccc(Cl)cc2)=C(CN2CCN(c3ccc(C(=O)NS(=O)(=O)c4ccc(N[C@H](CCN5CCN(C(=O)COCCOCCOCCOCCNc6cccc7c6C(=O)N([C@@H]6CCC(=O)NC6=O)C7=O)CC5)CSc5ccccc5)c(S(=O)(=O)C(F)(F)F)c4)cc3)CC2)C1
11	0.035	inactive	CN(CCOCCOCCNc1cccc2c1C(=O)N([C@@H]1CCC(=O)NC1=O)C2=O)CC[C@H](CSc1ccccc1)Nc1ccc(S(=O)(=O)NC(=O)c2ccc(N3CCN(CC4=C(c5ccc(Cl)cc5)CCC(C)(C)C4)CC3)cc2)cc1S(=O)(=O)C(F)(F)F

From ChEMBL document CHEMBL4680217, “Discovery of PROTAC BCL-X degraders as potent anticancer agents with low on-target platelet toxicity” (Eur J Med Chem, 2020)
